Measured values: PubChem BioAssay AID1959 (Broad Institute, 2009)
Active and inactive are the calls of the source.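 Rule for the calls: active = growth-inhibition EC50 no more than tenfold above the top tested dose; inconclusive = flat fit between 30% and 70% inhibition, or unreliable fit; inactive = EC50 more than tenfold above the top tested dose.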

The compounds below were run on E. coli NEB5alpha growth, BacTiter-Glo luminescence, 4 h (assay: antibacterial activity against E. coli NEB5alpha – luminescence, counter-screen for MEX-5/POS-1 RNA-binding inhibitor project, dose response (AID 1959);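 note: pUC19-transformed ampicillin-resistant cells grown in LB with ampicillin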).

SMILES	EC50
COC(=O)c1c(Cl)c2n3ccccc3c(C)c(-c3ccccc3)c-2c1C(=O)OC	> 11 µM (inactive)
Cc1cccc(N=C2NC(=O)CS2)c1	> 11 µM (inactive)
O=[N+]([O-])c1cccc(-c2cn3nc(-c4ccccc4)c(-c4ccccc4)nc3n2)c1	> 11 µM (inactive)
CCn1c2ccccc2c(=O)c2ccccc21	> 11 µM (inactive)
COc1ccc(S(=O)(=O)C(C#N)c2nc3ccccc3nc2N2CCC(C)CC2)cc1 (configuration not stated)	> 11 µM (inactive)
CS(=O)(=O)Nc1nc2n(n1)C(c1ccccc1)C=C(c1ccc(Br)cc1)N2 (configuration not stated)	> 11 µM (inactive)
CC(=O)N=c1c(C#N)cc2c(=O)n3cccc(C)c3nc2n1CCCOC(C)C	> 11 µM (inactive)
CC(C)OCC(O)CN1CCN(CCN2C(=O)c3cccc4cccc(c34)C2=O)CC1 (configuration not stated)	> 11 µM (inactive)
Oc1ccc(/C=N/NC(=S)Nc2cccnc2)c(O)c1O	> 11 µM (inactive)
O=C(/C=C/c1ccc(OCCCF)cc1)Nc1ccnc(-c2cccnc2)n1	> 11 µM (inactive)
Cc1ccccc1-c1ccc(/C=C2/SC(N3CCOCC3)=NC2=O)o1	> 11 µM (inactive)
Cc1ccc(/C=N/Nc2ncnc3nc[nH]c23)cc1	> 11 µM (inactive)
O=C(CCl)NCCN1C(=O)S/C(=C\c2cccnc2)C1=O	> 11 µM (inactive)
O=c1oc2ccccc2cc1-c1nc(-c2cccs2)cs1	> 11 µM (inactive)
COc1ccc(-c2cc(C(=O)N/N=C(\C)c3ccco3)c3ccccc3n2)c(OC)c1	> 11 µM (inactive)
O=C(NNC(=O)c1cnccn1)c1cccc([N+](=O)[O-])c1	> 11 µM (inactive)
CCN(CC)c1ccc(N=Cc2c(O)n(-c3ccc(OC)cc3)c(=O)[nH]c2=O)cc1	> 11 µM (inactive)
COc1ccc(C(=O)NNC(=O)c2cnccn2)cc1[N+](=O)[O-]	> 11 µM (inactive)
COc1ccc(NC(=O)CN2CCC(NC(=O)C3CCCCC3)CC2)c([N+](=O)[O-])c1	> 11 µM (inactive)
CC(=O)N(C1=C(Cl)C(=O)c2ccccc2C1=O)C1CCCCC1	> 11 µM (inactive)
COc1ccc(CCn2c(O)c(/C=N/NC(=O)c3ccncc3)c(=O)[nH]c2=O)cc1OC	> 11 µM (inactive)
CN(C)Cc1cc(O)c(CN(C)C)cc1O	> 11 µM (inactive)
O=C1NC(=O)N(c2ccccc2)C(=O)/C1=C/c1coc2ccc(O)cc2c1=O	> 11 µM (inactive)

SMILES	EC50
O=C(O)c1cc(O)c2c(c1)[C@H]([C@H]1c3cc(C(=O)O)cc(O)c3C(=O)c3c(O[C@@H]4O[C@H](CO)[C@@H](O)[C@H](O)[C@H]4O)cccc31)c1cccc(OC3O[C@H](CO)[C@@H](O)[C@H](O)[C@H]3O)c1C2=O (some centres not stated)	> 11 µM (inactive)
NC(=O)CC(NC(=O)Cc1ccc(Cl)cc1)c1ccc(NC2CCCCCC2)c([N+](=O)[O-])c1 (configuration not stated)	> 11 µM (inactive)
CC(C)(C)OC(=O)NCCCC1=CC2=CC(=O)C(C)(OC(=O)c3ccco3)C(=O)C2=CO1 (configuration not stated)	> 11 µM (inactive)
C/C(=N/N=C(\C)c1ccccc1O)c1ccccc1O	> 11 µM (inactive)
CC(=O)Oc1oc(-c2ccccc2)nc1C=Nc1ccc(N(C)C)cc1	> 11 µM (inactive)
O=C(c1ccco1)N1CCc2ccccc21	> 11 µM (inactive)
Oc1cc2c(cc1O)C(c1ccccc1)CNCC2 (configuration not stated)	> 11 µM (inactive)
COc1cccc(N2C(=O)/C(=C/c3ccc(C)o3)C(=O)NC2=S)c1	> 11 µM (inactive)
O=C1CCC/C(=N/NC(=O)c2sc3ccccc3c2Cl)C1	> 11 µM (inactive)
Cc1cccc(N2C(=O)/C(=C/c3ccc(N4CCN(C)CC4)o3)C(=O)NC2=S)c1C	> 11 µM (inactive)
COc1ccc(C(=O)/C=C/Nc2ccc([N+](=O)[O-])cc2C)c(OC)c1	> 11 µM (inactive)
O=C(NNS(=O)(=O)c1ccc([N+](=O)[O-])cc1)C(=O)Nc1cccc(C(=O)O)c1	> 11 µM (inactive)
C#CCOCCOCCOCCNc1nc(N2CCN(C(=O)[C@H]([C@@H](C)CC)n3cc([C@@H](N)CO)nn3)CC2)nc(N2CCN(C(=O)[C@H]([C@@H](C)CC)n3cc([C@@H](N)CC(C)C)nn3)CC2)n1	> 11 µM (inactive)
CCOC(=O)c1cc(-c2ccc(/C=C3/C(=O)NC(=O)C(C#N)=C3C)o2)ccc1Cl	> 11 µM (inactive)
CC1=CC(C)(C)N2C(=O)C3(C(C#N)=C(N)OC4=C3C(=O)CC(C)(C)C4)c3cc(C)cc1c32 (configuration not stated)	> 11 µM (inactive)
CSc1ccc(C2C(C(=O)c3ccco3)=C(O)C(=O)N2c2nnc(SC)s2)cc1 (configuration not stated)	> 11 µM (inactive)
O=S(=O)(Nc1cc(Sc2cccc3cccnc23)c(O)c2ccccc12)c1ccc(F)cc1	> 11 µM (inactive)
O=c1[nH]c(=O)n(-c2ccc(F)cc2)c(O)c1C=Nc1ccccc1N1CCCC1	> 11 µM (inactive)
Cc1cc(C(=O)O)ccc1-c1ccc(/C=C2\NC(=O)N(Cc3ccc(F)cc3)C2=O)o1	> 11 µM (inactive)
CCN1CCN(Cc2c(C(=O)N/N=C(\C)c3ccc(Cl)cc3)nnn2-c2nonc2N)CC1	> 11 µM (inactive)
Cc1cc(C)cc(N2C(=O)NC(=O)/C(=C\c3cccn3-c3ccc(Cl)cc3)C2=O)c1	> 11 µM (inactive)
Cc1cc(C)cc(-n2c(O)c(C=Nc3ccc(N4CCOCC4)cc3)c(=O)[nH]c2=S)c1	> 11 µM (inactive)
COc1ccc(NC(=O)/C=C/c2cccc(Br)c2)cn1	> 11 µM (inactive)

SMILES	EC50
CN1CCc2cc3c(c4c2C1Cc1ccccc1-4)OCO3 (configuration not stated)	> 11 µM (inactive)
CC(=NCc1ccc2c(c1)OCO2)c1c(O)n(-c2ccccc2)c(=O)[nH]c1=O	> 11 µM (inactive)
O=C(/C=C/Nc1ccc([N+](=O)[O-])cc1)c1ccc(Br)cc1	> 11 µM (inactive)
CCCCN1C(=O)/C(=C2/Sc3ccccc3N2C)S/C1=N\c1ncn[nH]1	> 11 µM (inactive)
CC1(C)CC(=O)C2=C(C1)OC(/N=C/N1CCCC1)=C(C#N)C2c1ccccc1 (configuration not stated)	> 11 µM (inactive)
O=c1[nH]nc(CNc2ccc(O)cc2)c2ccccc12	> 11 µM (inactive)
COc1ccc(/C=N/N=C2/CC(C)(C)Cc3n[nH]c(=O)cc32)cc1	> 11 µM (inactive)
c1ccc2[nH]c3cc4ncnc4cc3nc2c1	> 11 µM (inactive)
N=c1c(S(=O)(=O)c2ccc(Cl)cc2)cc2c(=O)n3ccccc3nc2n1CCc1ccccc1	> 11 µM (inactive)
N#CC(C#N)=Cc1ccc(NC(=O)c2ccc(Br)cc2)cc1	> 11 µM (inactive)
Clc1cc(-c2ccc(/C=N/n3cnnc3)o2)ccc1Br	> 11 µM (inactive)
Cc1ccc(NC(=S)c2ccc3ccccc3n2)c(C)c1	> 11 µM (inactive)
CCOc1ccc(-n2c(O)c(C=Nc3ccc(N(CC)CC)cc3)c(=O)[nH]c2=O)cc1	> 11 µM (inactive)
CN1C(=O)/C(=C\c2ccc(N(C)C)cc2)OC1=S	> 11 µM (inactive)
COc1ccccc1/C=C1/SC(=S)N(CCC(=O)Nc2cccnc2)C1=O	> 11 µM (inactive)
Cc1ccc(N=Nc2c(O)[nH]c3ccc(F)cc23)cc1	> 11 µM (inactive)
CCCCOc1cccc(C2C(C(=O)c3ccc(C)o3)=C(O)C(=O)N2c2nnc(C)s2)c1 (configuration not stated)	> 11 µM (inactive)
Cc1ccc2nc3c(cc(C(=O)NCC4CCCO4)c(=N)n3C3CCCC3)c(=O)n2c1 (configuration not stated)	> 11 µM (inactive)
C/C(=N\Nc1ccc([N+](=O)[O-])cc1[N+](=O)[O-])c1cc2c(ccc3ccccc32)oc1=O	> 11 µM (inactive)
Cn1c(=O)c2[nH]c(N=NNc3ccccc3F)nc2n(C)c1=O	> 11 µM (inactive)
Nc1cccc2c1C(=O)N(c1ccccc1)C2=O	> 11 µM (inactive)
O=C(NNC(=O)c1ccccc1O)c1cccc(Br)c1	> 11 µM (inactive)
CCOC(=O)c1ccc(N/C=C2\CCCCC2=O)cc1	> 11 µM (inactive)

SMILES	EC50
CCN(CC)c1ccc(N=Nc2ncn[nH]2)cc1	> 11 µM (inactive)
CC(C)(C)OC(=O)N1CC=C2C(C#N)=C(N)C(C#N)(C#N)[C@H](c3cccnc3)[C@H]2C1	> 11 µM (inactive)
O=[N+]([O-])c1ccccc1S(=O)(=O)n1nnc2ccccc21	> 11 µM (inactive)
O=C(N=C1SC2CS(=O)(=O)CC2N1c1ccccc1)C1CC1 (configuration not stated)	> 11 µM (inactive)
O=C(N/N=C/c1ccc(O)c(O)c1)N/N=C/c1ccc(O)c(O)c1	> 11 µM (inactive)
Nc1c(C(=O)N/N=C/c2cccnc2)oc2nc(-c3ccccc3)cc(-c3ccco3)c12	> 11 µM (inactive)
Cc1ccc2oc(=O)c(/C=C(\O)c3cccs3)nc2c1	> 11 µM (inactive)
COc1ccc2c(c1)c1nc3ccccc3nc1n2CCCN1C(=O)c2ccccc2C1=O	> 11 µM (inactive)
Cc1ccc(N2C(=O)NC(=O)/C(=C/c3cnn(-c4ccc(C)cc4)c3)C2=O)cc1	> 11 µM (inactive)
COc1ccc(CCNC(=O)c2nn(C)c3c2CS(=O)(=O)c2ccccc2-3)cc1OC	> 11 µM (inactive)
COc1ccc(-c2nnc(Nc3nc4c(OC)cccc4s3)o2)c(OC)c1	> 11 µM (inactive)
CCOc1ccc(N2C(=O)S/C(=C\c3cccn3C)C2=O)cc1	> 11 µM (inactive)
CCN(CC)C(=O)c1cc2c(=O)c3cc(Cl)ccc3oc2nc1C	> 11 µM (inactive)
CCN1C(=O)/C(=C\c2cccs2)C(C(=O)OC)=C1C	> 11 µM (inactive)
COc1ccc(/C=C2/N=C(c3cccs3)OC2=O)cc1OC(C)C	> 11 µM (inactive)
COCCN1C(=O)/C(=C/c2c(OC)cc(OC)cc2OC)C(=O)N(c2ccccc2)C1=O	> 11 µM (inactive)
CCCCOC(=O)CSC1=C(C#N)C(c2ccccc2OCC)C(C#N)C(=O)N1 (configuration not stated)	> 11 µM (inactive)
Cc1ccc(C(=O)Oc2oc(-c3ccccc3)nc2C=Nc2ccc(N(C)C)cc2)cc1	> 11 µM (inactive)
CCN1/C(=C2/SC(=S)N(NC(C)=O)C2=O)Sc2ccccc21	> 11 µM (inactive)
CCC(Oc1ccccc1)C(=O)Nc1ccccn1 (configuration not stated)	> 11 µM (inactive)
CC1(OC(=O)c2ccco2)C(=O)C=C2C=C(C3CC3)OC=C2C1=O (configuration not stated)	> 11 µM (inactive)
Cc1ccc(-c2ccc(CCC(=O)O)n2-c2cccc(C(=O)O)c2)cc1	> 11 µM (inactive)
CCCCn1c(O)c(C(=O)/C=C/c2ccc3c(c2)OCO3)c(=O)[nH]c1=O	> 11 µM (inactive)
